Here are results for two molecules from patent publication US12551479B2, “Acyl-protein thioesterase inhibitor for the treatment and/or prevention of Huntington's disease” (UNIVERSITÉ GRENOBLE ALPES, priority 2019, dated 2026).

In experiment [1] the test system is melanoma cells. Particulars: studies of Vujic et al., 2015; cited from earlier work.
Experiment [2] concerns StHdh^Q111/Q111 cells. Put plainly: RUSH system: GPI-SBP-mCherry trafficking from endoplasmic reticulum to Golgi and plasma membrane. Type of experiment: cell-based, mouse. The protocol: The RUSH plasmid (Boncompain et al., 2012) is a bicistronic plasmid (SEQ ID NO: 2) allowing the expression of two parts of the system: the reticulum-specific anchor (KDEL-streptavidin), and the reporter part (GPI-SBP-mCh). The addition of biotin in the extracellular medium (40 μM) induces the unhooking of the reporter part of the anchor, thus allowing to follow the intracellular trafficking in a synchronized way within a cell population from the endoplasmic reticulum.
For striatal StHdh cells, acute treatment was performed at 10 μM for 1 hour before and during the acquisition time. For neurons within the microchambers, treatments were started at DIV2 until DIV12 every day at 1 μM in each compartment of the microfluidic device.
The inventors used the Retention Using Selective Hooks (RUSH) system to study intracellular dynamics from the ER to the plasma membrane in Huntington's disease condition (FIG. 1A). RUSH allows tracking the synchronous release of a reporter molecule from specific intracellular compartments. In the present experiment, the inventors followed the release of glycosylphosphatidylinositol (GPI)-anchored fluorescence protein mCherry, and fused to streptavidin-binding peptide (SBP) that was retained into the ER compartment by the interaction with a “hook” protein composed of the KDEL motif fused to streptavidin. In the absence of biotin, the GPI-SBP-mCherry localizes at the ER (FIG. 1A). Addition of biotin to the cells expressing GPI-SBP-mCherry and KDEL-streptavidin causes a synchronous release of the GPI-SBP-mCherry reporter from the hook which then migrates to the Golgi apparatus and later to the plasma membrane.
To study these dynamics in the context of Huntington's disease, the inventors transfected the GPI-SBP-mCherry-KDEL-streptavidin construct as shown in SEQ ID NO:2 into immortalized striatal cells from Hdh^Q111/Q111 and Hdh^Q7/Q7 mice, referred to as StHdh^Q111/Q111 and StHdh^Q7/Q7 cells respectively. They then monitored GPI-SBP-mCherry trafficking by real-time imaging for 90 minutes. To assess intracellular trafficking dynamics, they quantified the kinetics of appearance and disappearance of mCherry fluorescence in the Golgi apparatus over time (FIGS. 1B and C). Shortly after biotin addition, GPI leaves the ER and moves to the Golgi apparatus. The inventors quantified fluorescence at the Golgi and observed that in StHdh^Q7/Q7 cells, the peak fluorescence was at 16.6 minutes, whereas it was delayed to 23.6 minutes in StHdh^Q111/Q111 cells (FIG. 1B). Their observations indicate a reduced trafficking of GPI from the ER to the Golgi apparatus as well as prolonged retention of GPI in the Golgi as evidenced by a longer period of GPI fluorescence in the Golgi apparatus.

Experiment [3] concerns the target APT2 (Homo sapiens, UniProt O95372). Particulars: read-out: IC50APT2; cited from earlier work.
Experiment [4] deals with APT1 (Homo sapiens, UniProt O75608). Conditions: read-out: IC50APT1; cited from earlier work.
APT1, sequence (O75608 whole entry): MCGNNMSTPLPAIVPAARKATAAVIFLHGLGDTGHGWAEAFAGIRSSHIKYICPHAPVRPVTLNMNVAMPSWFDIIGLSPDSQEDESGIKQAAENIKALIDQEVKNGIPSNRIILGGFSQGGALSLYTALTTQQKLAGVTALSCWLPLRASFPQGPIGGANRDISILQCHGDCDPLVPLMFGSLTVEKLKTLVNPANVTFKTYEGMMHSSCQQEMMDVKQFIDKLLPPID
Where [5] appears, read: StHdh^Q111/Q111 cells, inhibitor 10 μM 1 hour or siRNA gene silencing.

APT2, sequence (O95372 whole entry): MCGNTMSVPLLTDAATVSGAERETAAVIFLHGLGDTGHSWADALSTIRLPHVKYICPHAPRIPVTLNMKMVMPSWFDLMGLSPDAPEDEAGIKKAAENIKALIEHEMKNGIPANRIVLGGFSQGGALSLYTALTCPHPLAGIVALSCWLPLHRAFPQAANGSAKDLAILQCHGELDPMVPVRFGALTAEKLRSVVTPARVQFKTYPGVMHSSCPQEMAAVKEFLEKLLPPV

On to `COc1ccc(N2CCN(C(=O)c3cc4c(s3)-c3ccccc3S(=O)(=O)C4)CC2)cc1` [ML-349], for which, in experiment [1], the “effect on melanoma cells” value is reported as “no biologically significant effect”. Moreover, in experiment [2] (setting [5]), the “effect on kinetics from the endoplasmic reticulum to the Golgi apparatus” value is “no effect” and the “effect on retention in the Golgi” value is on record as “no effect”.

Consider `CCCCCCCCCC[C@@H]1C(=O)O[C@H]1CCc1ccc(OC)c(OC)c1` [Palmostatin B], for which the IC50 was 37.7 nM in experiment [3] and 5.4 nM in experiment [4]. Moreover, the “time after biotin addition for the appearance of the fluorescence peak in the Golgi” value in experiment [2] (StHdh^Q111/Q111 cells treated 1 hour with 10 μM, without treatment 23.2-23.3 min, StHdh^Q7/Q7 16.6 min) was determined as 18 min. Moreover, the “time for fluorescence to leave the Golgi apparatus (retention time in the Golgi)” value in experiment [2] (StHdh^Q111/Q111 cells treated 1 hour with 10 μM, without treatment 24-25.4 min, wild-type cells 15.1 min) is given as 21.3 min.
